Source: US20230159509A1 (Amathus Therapeutics, Inc., priority 2020, published 2023)

Target: T1, TRAP1 enzyme (Homo sapiens, UniProt Q12931)
T1 construct: 150 nM Trap1 enzyme was incubated with various concentrations of the test compound
T1 sequence (Q12931 60-704): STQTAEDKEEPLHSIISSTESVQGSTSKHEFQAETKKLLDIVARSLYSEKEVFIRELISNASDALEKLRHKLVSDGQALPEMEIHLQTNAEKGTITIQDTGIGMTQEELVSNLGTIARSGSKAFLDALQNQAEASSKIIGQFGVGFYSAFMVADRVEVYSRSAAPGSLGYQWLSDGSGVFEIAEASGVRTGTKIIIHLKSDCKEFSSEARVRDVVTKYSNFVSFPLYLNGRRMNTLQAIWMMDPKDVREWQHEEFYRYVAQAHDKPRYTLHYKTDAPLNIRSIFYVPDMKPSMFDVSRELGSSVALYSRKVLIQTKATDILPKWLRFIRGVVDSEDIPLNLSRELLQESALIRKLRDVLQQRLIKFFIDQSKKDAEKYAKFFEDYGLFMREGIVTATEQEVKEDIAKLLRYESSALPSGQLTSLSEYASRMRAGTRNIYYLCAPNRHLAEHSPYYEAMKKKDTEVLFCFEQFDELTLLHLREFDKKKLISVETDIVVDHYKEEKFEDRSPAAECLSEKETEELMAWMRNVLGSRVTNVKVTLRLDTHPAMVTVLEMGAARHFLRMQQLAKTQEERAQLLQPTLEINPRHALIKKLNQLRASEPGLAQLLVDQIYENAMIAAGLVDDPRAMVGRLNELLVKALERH
Assay: ADP Glo assay of TRAP1 ATPase activity
Assay type: biochemical
Conditions: for activation at 50 µM: 1 h, compound concentration 50 μM, read-out: ADP-Glo Percent Activation at 50 μM; for EC50: concentration for half maximal activation, read-out: ADP GLO DRC: GeoMean EC50; for Emax: maximal percent activation, read-out: ADP GLO DRC: Mean Emax
How it was run: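 Compound (0.79–100 μM) was preincubated 30 min at 37° C with 150 nM TRAP1 in 25 mM Pipes pH 7.5, 40 mM KCl, 0.05 mM MgCl2. Reaction started with 20 μM ATP, 60 min at 37° C. ADP measured by luminescence against a standard curve; activation fitted sigmoidally for EC50 and Emax.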

Compound | activation at 50 µM | EC50 | Emax
COc1ncc(NC(=O)c2ccc(C(C)=O)cc2)cc1S(=O)(=O)Nc1c(C)cccc1C [compound 2597] | 181 to 352% | – | –
COc1ncc(NC(=O)c2ncc(-c3ccccc3)o2)cc1S(=O)(=O)Nc1cccc2cnc(C)cc12 [compound 1624] | – | 10 to 20 µM | 160 to 199%
COc1ncc(NC(=O)c2csc(-c3ccccc3)n2)cc1S(=O)(=O)Nc1ccc(C(F)(F)F)cn1 [compound 2005] | – | 20 to 100 µM | 119 to 159%
COc1cnccc1C(=O)Nc1cnc(OC)c(S(=O)(=O)Nc2c(C)cccc2C)c1 [compound 2546] | 120 to 150% | – | –
COc1ncc(NC(=O)c2ncc(-c3ccccc3)o2)cc1S(=O)(=O)Nc1cc(C2CCCCC2)no1 [compound 1640] | – | 10 to 20 µM | 160 to 199%
COc1ncc(NC(=O)c2coc(-c3ccccc3)n2)cc1S(=O)(=O)Nc1c(Cl)cccc1C(F)(F)F [compound 1962, N-(5-(N-(2-chloro-6-(trifluoromethyl)phenyl)sulfamoyl)-6-methoxypyridin-3-yl)-2-phenyloxazole-4-carboxamide] | – | 20 to 100 µM | 160 to 199%
COc1ncc(NC(=O)c2cccc3c2OC(C)(C)C3)cc1S(=O)(=O)Nc1c(C)cccc1C [compound 1379, N-(5-(N-(2,6-dimethylphenyl)sulfamoyl)-6-methoxypyridin-3-yl)-2,2-dimethyl-2,3-dihydrobenzofuran-7-carboxamide] | – | 20 to 100 µM | 200 to 300%
COc1ncc(NC(=O)c2nnsc2C2CC2)cc1S(=O)(=O)Nc1c(C)cccc1C [compound 2758] | 151 to 180% | – | –
COc1ncc(NC(=O)c2ccc(NC(=O)C3CC3)cc2)cc1S(=O)(=O)Nc1c(C)cccc1C [compound 2671] | 120 to 150% | – | –
COc1ncc(NC(=O)c2cncc(N3CCCCC3)c2)cc1S(=O)(=O)Nc1c(C)cccc1C [compound 2622] | 120 to 150% | – | –
COc1ncc(NC(=O)c2cccc(CN(C)C)c2)cc1S(=O)(=O)Nc1c(C)cccc1C [compound 2631] | 151 to 180% | – | –
COc1ncc(NC(=O)c2cnn(C(F)(F)F)c2)cc1S(=O)(=O)Nc1c(C)cccc1C [compound 2637] | 120 to 150% | – | –
COc1ncc(NC(=O)c2ccc(OC(F)(F)F)cc2)cc1S(=O)(=O)Nc1c(C)cccc1C [compound 2531] | 120 to 150% | – | –
COc1ncc(NC(=O)c2cccc3ncoc23)cc1S(=O)(=O)Nc1c(C)cccc1C [compound 1367, N-(5-(N-(2,6-dimethylphenyl)sulfamoyl)-6-methoxypyridin-3-yl)benzo[d]oxazole-7-carboxamide] | – | 20 to 100 µM | > 300%
COc1ncc(NC(=O)c2csc(-c3ccccc3)n2)cc1S(=O)(=O)Nc1c(C)nn(C)c1C [compound 1417, N-(6-methoxy-5-(N-(1,3,5-trimethyl-1H-pyrazol-4-yl)sulfamoyl)pyridin-3-yl)-2-phenylthiazole-4-carboxamide] | – | 20 to 100 µM | 200 to 300%
COc1ncc(NC(=O)c2ncc(-c3ccccc3)o2)cc1S(=O)(=O)Nc1cc(F)c(C#N)cc1F [compound 1538] | – | 20 to 100 µM | 119 to 159%
COc1ncc(NC(=O)c2cc(Cl)n[nH]2)cc1S(=O)(=O)Nc1c(C)cccc1C [compound 2730] | 181 to 352% | – | –
COc1ncc(NC(=O)c2cnc3n2CCCC3)cc1S(=O)(=O)Nc1c(C)cccc1C [compound 1404, N-(5-(N-(2,6-dimethylphenyl)sulfamoyl)-6-methoxypyridin-3-yl)-5,6,7,8-tetrahydroimidazo[1,2-a]pyridine-3-carboxamide] | – | 20 to 100 µM | > 300%
COc1ncc(NC(=O)c2scc(C)c2Cl)cc1S(=O)(=O)Nc1c(C)cccc1C [compound 1398] | – | 10 to 20 µM | 160 to 199%
COc1ncc(NC(=O)c2cncc(N(C)C)n2)cc1S(=O)(=O)Nc1c(C)cccc1C [compound 2543] | 181 to 352% | – | –
COc1ncc(NC(=O)c2cnc3c(c2)OCCN3C)cc1S(=O)(=O)Nc1c(C)cccc1C [compound 2793] | 181 to 352% | – | –
COc1ncc(NC(=O)c2cc(C)no2)cc1S(=O)(=O)Nc1c(C)cccc1C [compound 2754] | 120 to 150% | – | –
COc1ncc(NC(=O)c2ccnn2C(C)C)cc1S(=O)(=O)Nc1c(C)cccc1C [compound 2553] | 120 to 150% | – | –
COc1ncc(NC(=O)c2ncc(-c3ccccc3)o2)cc1S(=O)(=O)Nc1cc(-c2ccc(C)cc2)nn1C [compound 1568] | – | 20 to 100 µM | 200 to 300%

Compound | activation at 50 µM | EC50 | Emax
COc1ncccc1C(=O)Nc1cnc(OC)c(S(=O)(=O)Nc2c(C)cccc2C)c1 [compound 2535] | 151 to 180% | – | –
COc1ncc(NC(=O)c2cnn3c2CCC3)cc1S(=O)(=O)Nc1c(C)cccc1C [compound 2557] | 151 to 180% | – | –
COc1ncc(NC(=O)c2csc(-c3ccccc3)n2)cc1S(=O)(=O)Nc1ccc2nn[nH]c2c1 [compound 1926] | – | 20 to 100 µM | 119 to 159%
COc1ncc(NC(=O)C(C)n2cc(Br)cn2)cc1S(=O)(=O)Nc1ccc(Cl)cc1 (centres unmarked) [compound 1213, (4-bromo-1H-pyrazol-1-yl)-N-(5-(N-(4-chlorophenyl)sulfamoyl)-6-methoxypyridin-3-yl)propanamide] | – | 20 to 100 µM | 119 to 159%
CCn1cc(C(=O)Nc2cnc(OC)c(S(=O)(=O)Nc3c(C)cccc3C)c2)cn1 [compound 2750] | 120 to 150% | – | –
COc1ncc(NC(=O)c2ccccc2CN2CCOCC2)cc1S(=O)(=O)Nc1c(C)cccc1C [compound 2634] | 181 to 352% | – | –
COc1ncc(NC(=O)c2ccc(-n3nc(C)nc3C)cc2)cc1S(=O)(=O)Nc1c(C)cccc1C [compound 2656] | 181 to 352% | – | –
COc1ncc(NC(=O)c2ccno2)cc1S(=O)(=O)Nc1c(C)cccc1C [compound 2781] | 120 to 150% | – | –
COc1ncc(NC(=O)c2coc(-c3ccccc3)n2)cc1S(=O)(=O)Nc1cccc2cnc(C)cc12 [compound 2447] | – | 10 to 20 µM | 160 to 199%
COc1ncc(NC(=O)c2cccc(NC(=O)N(C)C)c2)cc1S(=O)(=O)Nc1c(C)cccc1C [compound 2784] | 181 to 352% | – | –
COc1ncc(NC(=O)c2ncc(-c3ccccc3)o2)cc1S(=O)(=O)Nc1c(F)cccc1C(F)(F)F [compound 1377, N-(5-(N-(2-fluoro-6-(trifluoromethyl)phenyl)sulfamoyl)-6-methoxypyridin-3-yl)-5-phenyloxazole-2-carboxamide] | – | 20 to 100 µM | 160 to 199%
COc1ncc(NC(=O)c2coc(-c3ccccc3)n2)cc1S(=O)(=O)Nc1c(C)cccc1Cl [compound 1941, N-(5-(N-(2-chloro-6-methylphenyl)sulfamoyl)-6-methoxypyridin-3-yl)-2-phenyloxazole-4-carboxamide] | – | < 10 µM | 160 to 199%
COc1ncc(NC(=O)c2cccc(N3CCOCC3)n2)cc1S(=O)(=O)Nc1c(C)cccc1C [compound 2584] | 181 to 352% | – | –
CCN(CC)S(=O)(=O)c1ccc(C(=O)Nc2cnc(OC)c(S(=O)(=O)Nc3c(C)cccc3C)c2)cc1 [compound 2642] | 151 to 180% | – | –
CCN1CCN(Cc2ccccc2C(=O)Nc2cnc(OC)c(S(=O)(=O)Nc3c(C)cccc3C)c2)CC1 [compound 2547] | 120 to 150% | – | –
COc1ncc(NC(=O)c2cnn3c2SCC3)cc1S(=O)(=O)Nc1c(C)cccc1C [compound 2740] | 181 to 352% | – | –
COc1ncc(NC(=O)c2ccc(C(F)(F)F)s2)cc1S(=O)(=O)Nc1c(C)cccc1C [compound 2644] | 151 to 180% | – | –
COc1ncc(NC(=O)c2csc3c2C2CCN3CC2)cc1S(=O)(=O)Nc1c(C)cccc1C [compound 1946, N-(5-(N-(2,6-dimethylphenyl)sulfamoyl)-6-methoxypyridin-3-yl)-5,6-dihydro-4H-4,7-ethanothieno[2,3-b]pyridine-3-carboxamide] | – | < 10 µM | 160 to 199%
COc1ncc(NC(=O)c2ncc(-c3ccccc3)o2)cc1S(=O)(=O)Nc1cc(F)c(F)cc1F [compound 1503] | – | 20 to 100 µM | 160 to 199%
COc1ncc(NC(=O)c2ccc(N3CCOCC3)nc2)cc1S(=O)(=O)Nc1c(C)cccc1C [compound 2554] | 181 to 352% | – | –
COc1ncc(NC(=O)c2c3c(nn2C)CCC3)cc1S(=O)(=O)Nc1c(C)cccc1C [compound 2528] | 181 to 352% | – | –
CCc1cccc(C)c1NS(=O)(=O)c1cc(NC(=O)c2csc(-c3ccccc3)n2)cnc1OC [compound 1393, N-(5-(N-(2-ethyl-6-methylphenyl)sulfamoyl)-6-methoxypyridin-3-yl)-2-phenylthiazole-4-carboxamide] | – | < 10 µM | 119 to 159%
[2H]c1c([2H])c([2H])c(-c2nc(C(=O)Nc3cnc(OC)c(S(=O)(=O)Nc4c(C)cccc4C)c3)cs2)c([2H])c1[2H] [compound 2500] | – | < 10 µM | 119 to 159%
COc1ncc(NC(=O)c2ccccc2C(F)(F)F)cc1S(=O)(=O)Nc1c(C)cccc1C [compound 2550] | 151 to 180% | – | –
